Structures are written as SMILES.

Data set [1] is described as follows: TH17 cell viability (Prestoblue). In kind it is cell-based. Also noted: concentration or dose not given beside the values. The settings on record: human; percentage of DMSO treated cells; read-out: % viability of compound treated TH17 cells. The protocol: (§1) Peripheral blood mononuclear cells (PBMCs) were sourced from freshly prepared leukocyte enriched plasma (buffy coat) from healthy volunteers from which PBMCs were isolated by density gradient centrifugation using Ficoll-Paque™ PLUS (GE Healthcare). Naïve CD4+ T cells were isolated using the Naïve CD4+ T cell Isolation Kit II (Miltenyi Biotec) as per manufacturer's instructions. CD4+ T cells were plated at 5×10^4 cells/well in 96 well plates pre-coated with immobilized human (h)-αCD3 antibody (eBioscience) then differentiated to TH17 cells using h-αCD28, h-αIFNγ, h-αIL4, h-IL6, h-IL23, h-IL1β, h-TGFβ1 (eBioscience) and maintained in a cell culture incubator at 37° C. with 5% CO2 in TexMACS Medium (Miltenyi Biotec) supplemented with 1% Penicillin/Streptomycin (Lonza) over 5 days.
Cells were assayed for viability in the presence or absence of compound using Prestoblue® Cell Viability Reagent (Life Technologies) as per manufacturer's instructions after 30 minutes incubation of TH17 cells with reagent. Absorbance was measured at 570 nm and 600 nm using a microplate reader (Perkin Elmer) and data were analyzed as per manufacturer's instructions. Cell viability was expressed as a percentage of DMSO treated cells.

Data set [2] deals with T1, RORα LBD (Homo sapiens (Human), UniProt P35398). Put plainly: TR-FRET co-repressor NCoR1-D2 interaction with RORα LBD. The class given is biochemical. The source says:
(§2) The Time-Resolved Fluorescence Resonance Energy Transfer (TR-FRET) assay kit (Life Technologies) was used to measure compound efficacy to disrupt or enhance ligand-mediated interaction of the co-activator and co-repressor peptides with the purified GST-tagged (i) RORγ LBD or (ii) […]. The RORγ LBD and RORα LBD each have a basal level of interaction with the co-activator D22 or co-repressor NCoR1-D2 in the absence of ligand, thus it is possible to identify compounds that inhibit or induce RORγ and/or RORα co-activator/co-repressor interactions, thus determining RORα, RORγ, or RORα/RORγ compound selectivity. The assay was performed as per manufacturer's instructions and TR-FRET was assessed 2 and 20 hours post-assay initiation. Compounds were identified to (i) have no impact on either co-activator displacement or […] from the assessed LBD (ii) promote co-activator displacement from the assessed LBD (iii) promote co-repressor recruitment to the assessed LBD or (iv) concurrently promote co-activator displacement from the assessed LBD and co-repressor recruitment to the assessed LBD.
A general note: In TR-FRET formats the signal depends on donor and acceptor labels being close together.

The test system of data set [3] is TH17 cells. In words: TH17 cellular proliferation (Prestoblue). The class given is cell-based. Particulars: Homo sapiens, 120 h; 3 μM compound, after 5 day TH17 differentiation, relative to DMSO treated TH17 cells; read-out: % change in TH17 cell number. The protocol: as §1
Cellular proliferation was assessed in the presence or absence of 3 μM compound using Prestoblue® Cell Viability Reagent (Life Technologies) as per manufacturer's instructions using absorbance as the output measured by a microplate reader (Perkin Elmer) after 30 minutes of incubation of cells and reagent. A standard curve developed by plotting varying cell numbers versus absorbance was used to assess differences in cellular proliferation between compound treated or untreated cells after the 5 day TH17 differentiation period.

Data set [4] addresses T2, RORγ LBD (Homo sapiens (Human), UniProt P51449). Put plainly: TR-FRET co-activator D22 interaction with RORγ LBD. In kind it is biochemical.
Text: as §2

For data set [5], the target named is T2, RORγ LBD. In words: TR-FRET co-repressor NCoR1-D2 interaction with RORγ LBD. The class given is biochemical.
Text: as §2

Data set [6] concerns IL-22. In words: TH17 cytokine inhibition as measured by ELISA: IL-22. In kind it is cell-based. Particulars: 120 h; human TH17 cells, 5 days differentiation, ELISA of supernatant. The protocol:
as §1
(§3) Human CD4+ T cells were differentiated to TH17 cells as described in the presence or absence of various concentrations of compounds in a final concentration of 0.1% DMSO in TexMACS medium. Supernatants were collected and stored at −20° C. until they were to be assayed for IL-17A, IL-17F, IL-17AF, IL-21 and/or IL-22 levels as determined by Ready-Set-Go ELISA kits (eBioscience) as per manufacturer's instructions. Endpoint absorbance was read at 450 nm and 570 nm according to manufacturer's instructions (eBioscience) using a microplate reader (Perkin Elmer). The percentage of cytokine inhibition was calculated with reference to DMSO treated cells and the IC50s were determined by GraphPad Prism software and presented in the table below.

The test system of data set [7] is IL-17A. In words: TH17 cytokine inhibition as measured by ELISA: IL-17A. The class given is cell-based. The settings on record: 120 h; human TH17 cells, 5 days differentiation, ELISA of supernatant. How it is done: as §1, §3
On the technique in general: ELISA stands for enzyme-linked immunosorbent assay.

Data set [8] deals with IL-17F. In words: TH17 cytokine inhibition as measured by ELISA: IL-17F. In kind it is cell-based. The settings on record: 120 h; human TH17 cells, 5 days differentiation, ELISA of supernatant. The protocol:
as §1, §3

Data set [9] has as its target T1, RORα LBD. Put plainly: TR-FRET co-activator D22 interaction with RORα LBD. The class given is biochemical.
Text: as §2

Setting [10] is: 2 hr, read-out: RORα EC50 NCoR1-D2 co-repressor recruitment 2 hr.
The mark [11] stands for this setting: 20 hr, read-out: RORα EC50 NCoR1-D2 co-repressor recruitment 20 hr.
The mark [12] stands for this setting: 2 hr, read-out: RORγ EC50 D22 co-activator displacement 2 hr.
Setting [13] is: 20 hr, read-out: RORγ EC50 D22 co-activator displacement 20 hr.
The mark [14] stands for this setting: 2 hr, read-out: RORγ EC50 NCoR1-D2 co-repressor recruitment 2 hr.
Setting [15] is: 20 hr, read-out: RORγ EC50 NCoR1-D2 co-repressor recruitment 20 hr.
Where [16] appears, read: 2 hr, read-out: RORα EC50 D22 co-activator displacement 2 hr.
Where [17] appears, read: 20 hr, read-out: RORα EC50 D22 co-activator displacement 20 hr.
[18] abbreviates: 2 hr, co-activator recruitment (π), read-out: RORγ EC50 D22 2 hr (demonstrates co-activator recruitment).

T1 sequence (P35398 272-510): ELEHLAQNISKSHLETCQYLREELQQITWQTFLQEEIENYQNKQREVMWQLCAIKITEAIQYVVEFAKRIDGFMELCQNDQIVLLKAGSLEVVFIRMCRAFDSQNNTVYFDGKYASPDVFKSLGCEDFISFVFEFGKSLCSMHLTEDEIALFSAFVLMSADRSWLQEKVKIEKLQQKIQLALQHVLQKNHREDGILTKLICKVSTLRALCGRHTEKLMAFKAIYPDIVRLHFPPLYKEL
T2 sequence (P51449 269-508): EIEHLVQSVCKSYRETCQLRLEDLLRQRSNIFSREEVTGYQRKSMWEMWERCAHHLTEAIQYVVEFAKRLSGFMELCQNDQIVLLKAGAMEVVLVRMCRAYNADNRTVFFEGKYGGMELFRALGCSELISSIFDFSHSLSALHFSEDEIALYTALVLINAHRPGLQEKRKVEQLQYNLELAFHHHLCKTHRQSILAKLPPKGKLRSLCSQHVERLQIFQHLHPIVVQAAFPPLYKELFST

With `CC(=O)Nc1ccc2c(c1)CCN2Cc1ccc(C(F)(F)F)cc1` [Example 7, N-(1-(4-(trifluoromethyl)benzyl)indolin-5-yl)acetamide], the viability (in general, a per cent measure of how many cells are alive, often set against a control) in data set [1] is more than 80%. The EC50 (as a rule, the concentration giving half of the maximal effect) in [2] (setting [10]) is more than 30 µM; in [2] (setting [11]), more than 30 µM; in data set [4] (setting [12]), more than 30 µM; in data set [4] (setting [13]) it was less than 30 µM; in data set [5] (setting [14]), more than 30 µM; in data set [5] (setting [15]), more than 30 µM. In addition, the EC50 in data set [9] (setting [16]) and in [9] (setting [17]) was more than 30 µM throughout. Moreover, the inhibition at 3 µM in [3] was not above 50%. In addition, the IC50 in data set [6], in data set [7] and in data set [8] was less than 10 µM throughout.

Regarding `CC(=O)Nc1ccc2c(c1)CCN2Cc1ccc(C(=O)Nc2ccccc2)cc1` [Example 15, 4-((5-acetamidoindolin-1-yl)methyl)-N-phenylbenzamide], the viability in data set [1] is more than 80%. Further, the EC50 is more than 30 µM in [2] (setting [10]); more than 30 µM in [2] (setting [11]); less than 30 µM in data set [4] (setting [12]); less than 30 µM in [4] (setting [13]); more than 30 µM in data set [5] (setting [14]); more than 30 µM in data set [5] (setting [15]). Besides, the half-maximal effective concentration (EC50) in data set [9] (setting [16]) and in data set [9] (setting [17]) was more than 30 µM in each case. Besides, the inhibition at 3 µM in [3] was not above 50%. Besides, the IC50 in data set [6], in [7] and in data set [8] was less than 10 µM throughout.

As to `CC(=O)Nc1ccc2c(c1)CCN2Cc1ccc(C(=O)N(C)c2ccccc2)cc1` [Example 14, 4-((5-acetamidoindolin-1-yl)methyl)-N-methyl-N-phenylbenzamide], the viability in data set [1] is more than 80%. Besides, the EC50 in [2] (setting [10]) is more than 30 µM; in data set [2] (setting [11]), more than 30 µM; in data set [4] (setting [18]), less than 30 µM; in data set [4] (setting [13]) it was more than 30 µM; in data set [5] (setting [14]) it was more than 30 µM; in data set [5] (setting [15]), more than 30 µM. The concentration giving a half-maximal response (EC50) in data set [9] (setting [16]) and in data set [9] (setting [17]) was more than 30 µM in each case. Moreover, the IC50 in data set [6], in data set [7] and in data set [8] was less than 10 µM each time.

On to `CC(=O)Nc1ccc2c(c1)CCN2Cc1ccc(C(N)=O)cc1` [Example 11, 4-((5-acetamidoindolin-1-yl)methyl)benzamide], for which the viability in [1] is more than 80%. Also, the EC50 was more than 30 µM in data set [2] (setting [10]); more than 30 µM in [2] (setting [11]); less than 30 µM in data set [4] (setting [18]); more than 30 µM in data set [4] (setting [13]); more than 30 µM in data set [5] (setting [14]); more than 30 µM in [5] (setting [15]). In addition, the EC50 is less than 30 µM in data set [9] (2 hr, co-activator recruitment (π), read-out: RORα EC50 D22 2 hr (demonstrates co-activator recruitment)) and less than 30 µM in data set [9] (20 hr, co-activator recruitment (π), read-out: RORα EC50 D22 20 hr (demonstrates co-activator recruitment)). In addition, the inhibition at 3 µM in data set [3] is not above 50%. For the same compound, the IC50 in [6], in data set [7] and in data set [8] was more than 10 µM throughout.

Consider `CC(=O)Nc1ccc2c(c1)CCN2Cc1ccc(C(=O)N(C)C)cc1` [Example 13, 4-((5-acetamidoindolin-1-yl)methyl)-N,N-dimethylbenzamide], for which, in [1], the viability was more than 80%. For the same compound, the EC50 in data set [2] (setting [10]), in data set [2] (setting [11]), in [4] (setting [12]), in data set [4] (setting [13]), in data set [5] (setting [14]) and in data set [5] (setting [15]) was more than 30 µM throughout. Besides, the EC50 in [9] (setting [16]) and in [9] (setting [17]) was more than 30 µM in each case. Moreover, the inhibition at 3 µM in [3] is not above 50%. The IC50 in [6], in [7] and in data set [8] was more than 10 µM throughout.

For the compound `CC(=O)Nc1ccc2c(c1)CCN2Cc1ccc(C(C)C)cc1` [Example 8, N-(1-(4-isopropylbenzyl)indolin-5-yl)acetamide], the viability in data set [1] was more than 80%. Further, the EC50 is more than 30 µM in data set [2] (setting [10]); more than 30 µM in data set [2] (setting [11]); less than 30 µM in data set [4] (setting [12]); less than 30 µM in data set [4] (setting [13]); more than 30 µM in data set [5] (setting [14]); more than 30 µM in data set [5] (setting [15]). The EC50 in [9] (setting [16]) and in data set [9] (setting [17]) was more than 30 µM in each case. Also, in data set [3], the inhibition at 3 µM was not above 50%. The half-maximal inhibitory concentration (IC50) in [6], in data set [7] and in data set [8] was less than 10 µM throughout.

As to `CC(=O)Nc1ccc2c(ccn2Cc2ccc(C(O)(C(F)(F)F)C(F)(F)F)cc2)c1` [Example 16, N-(1-(4-(1,1,1,3,3,3-hexafluoro-2-hydroxypropan-2-yl)benzyl)-1H-indol-5-yl)acetamide], the viability in data set [1] is more than 80%. Further, the EC50 in data set [2] (setting [10]) was more than 30 µM; in [2] (setting [11]), less than 30 µM; in data set [4] (setting [12]) it was less than 30 µM; in data set [4] (setting [13]) it was less than 30 µM; in data set [5] (setting [14]), more than 30 µM; in [5] (setting [15]), more than 30 µM. Also, the figures for the concentration giving a half-maximal response (EC50) in [9] (setting [16]) and in data set [9] (setting [17]) were less than 30 µM and more than 30 µM, respectively. Moreover, the inhibition at 3 µM in data set [3] was not above 50%. In addition, the IC50 in data set [6], in data set [7] and in data set [8] was less than 10 µM each time.

Take `CC(=O)Nc1ccc2c(c1)CCN2Cc1ccc(-c2cc(C)n[nH]2)cc1` [Example 9, N-(1-(4-(3-methyl-1H-pyrazol-5-yl)benzyl)indolin-5-yl)acetamide]: the viability in data set [1] is more than 80%. The concentration for a half-maximal effect (EC50) in data set [2] (setting [10]), in data set [2] (setting [11]), in data set [4] (setting [12]), in data set [4] (setting [13]), in data set [5] (setting [14]) and in data set [5] (setting [15]) was more than 30 µM each time. Also, the EC50 in data set [9] (setting [16]) and in [9] (setting [17]) was more than 30 µM in each case. Further, the IC50 in [6], in [7] and in [8] was less than 10 µM throughout.

As to `CC(=O)Nc1ccc2c(c1)CCN2Cc1ccc(C2(O)CCC2)cc1` [Example 10, N-(1-(4-(1-hydroxycyclobutyl)benzyl)indolin-5-yl)acetamide], in [1], the viability was more than 80%. Further, the EC50 in data set [2] (setting [10]), in [2] (setting [11]), in data set [4] (setting [12]), in data set [4] (setting [13]), in [5] (setting [14]) and in data set [5] (setting [15]) was more than 30 µM in each case. The EC50 in data set [9] (setting [16]) and in data set [9] (setting [17]) was less than 30 µM each time. Moreover, the values for the IC50 in data set [6], in data set [7] and in data set [8] were less than 10 µM, more than 10 µM and more than 10 µM, respectively.

These data come from patent US9321750B2, “ROR modulators and their uses” (INNOV17 LLC, priority 2012, dated 2016).
